Laboratory results published in patent US7141601B2, “Dendrite elongation inhibitor for melanocyte and skin preparation for external use containing the same” (Pola Chemiocal Industries Inc., priority 2002, dated 2006).

System: Normal human melanocyte
Assay: inhibitory action on the elongation of dendrites using human melanocytes
Type: cell-based
Source text: According to a method shown below, inhibitory action on the elongation of dendrites was examined using human melanocytes. (Reagent, etc.) Cells, basal media, and amplification additives were purchased from KURABO INDUSTRIES LTD. • (Cell) Normal human melanocyte • (Medium) Basal medium (Medium 154S) supplemented with reagents described below • (Reagent) Amplification additive: bovine pituitary extract (BPE) (final concentration of 0.4% v/v in the medium), fetal bovine serum • (FBS) (final concentration of 0.5% v/v in the medium), human recombinant basic fibroblast growth factor (rFGF-B) (final concentration of 3 ng/ml in the medium), hydrocortisone (final concentration of 0.18 μg/ml in the medium), insulin (final concentration 5 μg/ml in the medium), transferrin (final concentration of 5 μg/ml in the medium), phorbol 12-myristate 13-acetate (PMA) (final concentration of 10 ng/ml in the medium), heparin (final concentration of 3 μg/ml in the medium), and PSA solution (mixture solution of penicillin concentration of 50,000 Unit/ml, streptomycin concentration of 50 μg/ml, and amphotericin B concentration of 12.5 μg/ml; 1-ml addition with respect to 500 ml of the medium) (Method)
Compound 1 (methylophiopogonanone B) obtained in the above-described example of production was diluted in a basal medium so that the concentration was brought up to 100 μg/ml, to make a sample solution. […]

COc1ccc(CC2COc3c(C)c(O)c(C)c(O)c3C2=O)cc1 (centres unmarked) [Compound 1, 2,3-dihydro-3-[(4-methoxyphenyl)methyl]-5,7-dihydroxy-6,8-dimethyl-4H-1-benzopyran-4-on]
Length of dendrite (50 μl of 100 μg/ml sample solution added to 200 μl medium, observed 24 hours after addition, growth factors in medium): 22 ± 6 μm | inhibition against the elongation of dendrites (in words) (vs control with basal medium only, 24 hours after addition): elongation is inhibited
